Article PMC9061999, “Application of the Adverse Outcome Pathway Concept to In Vitro Nephrotoxicity Assessment: Kidney Injury due to Receptor-Mediated Endocytosis and Lysosomal Overload as a Case Study” (Frontiers in Toxicology, 2022)

System: RPTEC/TERT1 and NRK-52E cells
Assay: In vitro key event assays (LAMP-1/2, cathepsin D, cell viability) compared across both cell models
Format: cell-based, human and rat
Procedure: Cells were plated into 96-well tissue culture plates (10,000 cells per well) and were allowed to grow for 48 h (NRK-52E) respectively 10 d (RPTEC/TERT1) prior to 24 h treatment with model stressors. Stock solution for each compound (2000 µM) was prepared in growth medium and serial dilutions (1:1) were made before each experiment. At the end of the 24 h treatment, cell viability was measured using the CellTiter-Glo® assay (Promega). CellTiter-Glo® reagents and buffer were mixed under light-protected conditions and 100 µL CellTiter-Glo® solution was added directly to each well followed by 2 min incubation on an orbital shaker and 10 min incubation at room temperature in the dark to stabilize the luminescence signal. The suspension was mixed via pipetting and 50 µL were transferred into white 96-well plates (PerkinElmer Inc.). The luminescence signal was measured on a multiplate reader (Mithras LB 940; Berthold). Each assay was performed in three independent experiments carried out in triplicates.
For immunocytochemistry experiments, cells were seeded into 8-well chamber slides (Ibidi) at a density of 140 cells per µL in 300 µL growth medium and were allowed to grow for 48 h (NRK-52E) or 10 d (RPTEC/TERT1) respectively. For treatment, stock solutions (1,000 µM) of compounds dissolved in growth medium were freshly prepared and serial dilutions were made before exposure of cells for 24 h. After treatment, cells were washed twice with 150 µL PBS and fixed with 150 µL 4% paraformaldehyde in 1 x PBS for 10 min at room temperature. After fixation, cells were washed 10 min with 150 µL PBS on an orbital shaker followed by permeabilization with 150 µL 0.2% Triton X-100 in 1 x PBS for 5 min at room temperature on an orbital shaker. The permeabilized cells were washed twice with 1 x PBS (150 µL) for 10 min at room temperature on an orbital shaker and then incubated with 150 µL 5% BSA dissolved in 1 x PBS for 1 h at room temperature to block unspecific binding sites. After blocking, 100 µL primary antibody diluted 1:100 in 1% BSA in 1 x PBS were directly pipetted onto the cells and incubated overnight at 4°C. The following antibodies were employed for NRK-52E cells: Anti-LAMP-1 monoclonal IgG1 kappa mouse antibody (Santa Cruz; sc-20011), anti-Cathepsin D mouse monoclonal IgG2 kappa antibody (Santa Cruz; sc-377124); for RPTEC/TERT1 cells: Anti-LAMP-2 monoclonal mouse antibody (Santa Cruz; sc-18822), anti-Cathepsin D mouse monoclonal IgG2b kappa (Novus Biologicals; NBP1-04278); for both cell lines anti-megalin mouse monoclonal IgG1 antibody (Santa Cruz, sc-515772).
After incubation with primary antibody, cells were washed three times for 15 min with 0.2% Tween in 1 x PBS (150 µL) on an orbital shaker. Cells were incubated for 1 h at room temperature with 100 µL CFL 488-conjugated mouse IgG kappa binding protein (1:50) (m-IgGκ BP-CFL 488; Santa Cruz, sc-516176). After incubation the cells were washed three times for 15 min with 0.2% Tween in 1 x PBS on an orbital shaker and once with 150 µL sterile water. Phalloidin-tetramethylrhodamine B isothiocyanate (TRITC) was used to stain the cytoskeleton and was diluted in 100% methanol to a stock concentration of 0.1 mg/ml and further diluted in 1 x PBS to a working concentration of 0.095 µM. After cells were washed once with 1 x PBS for 10 min at room temperature 150 µL phalloidin-TRITC working solution was added and the cells were incubated on an orbital shaker at room temperature for 60–90 min. After incubation, phalloidin-TRITC solution was aspirated, and the cells were washed once with 1 x PBS. Chamber slides were allowed to dry for 15 min at room temperature. To preserve fluorescence 50–100 µL DAPI mounting medium (Vectashield®; Vectorlab, Biozol) was added to the cells and chamber slides were stored at 4°C in the dark until image acquisition. […]

## Polymyxin B
24 h treatment, cell viability
  Cytotoxicity compared between RPTEC/TERT1 and NRK-52E cells: RPTEC/TERT1 cells were found to be significantly more sensitive
RPTEC/TERT1 and NRK-52E, 24 h
  Rank order of effects of the 3 polymyxin derivatives across all KEs: most active
RPTEC/TERT1 and NRK-52E, 24 h, immunocytochemistry, quantitative image analysis
  Effect on cathepsin D fluorescence intensity (KE2): concentration-dependent decrease in fluorescence intensity
RPTEC/TERT1 and NRK-52E, 24 h, immunofluorescence image analysis
  Effect on LAMP-1/2 expression (KE1): significant, concentration-dependent increase in LAMP-1/2 expression
RPTEC/TERT1 and NRK-52E, 24 h treatment, CellTiter-Glo
  Effect on cell viability / cytotoxicity (KE3): concentration-dependent decrease in cell viability
